From ChEMBL document CHEMBL1201862, “PubChem BioAssay data set” (2004)
Active and inactive are the calls of the source.

Legend:
[1] = biological target: Large T antigen (Simian virus 40, UniProt P03070); type: functional, Betapolyomavirus macacae;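 note: Confirmatory-stage PubChem screen for compounds that inhibit SV40 T antigen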
[2] = cells; type: functional, cell-based
[3] = cells; type: functional, cell-based; remark: listed apart in the source
[4] = biological target: T1, Coagulation factor XII (Homo sapiens, UniProt P00748); type: functional;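 note: activated factor XIIa alpha cleaving a fluorogenic AMC peptide substrate; inhibitor potency from loss of enzyme activity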
T1 sequence (P00748 whole entry): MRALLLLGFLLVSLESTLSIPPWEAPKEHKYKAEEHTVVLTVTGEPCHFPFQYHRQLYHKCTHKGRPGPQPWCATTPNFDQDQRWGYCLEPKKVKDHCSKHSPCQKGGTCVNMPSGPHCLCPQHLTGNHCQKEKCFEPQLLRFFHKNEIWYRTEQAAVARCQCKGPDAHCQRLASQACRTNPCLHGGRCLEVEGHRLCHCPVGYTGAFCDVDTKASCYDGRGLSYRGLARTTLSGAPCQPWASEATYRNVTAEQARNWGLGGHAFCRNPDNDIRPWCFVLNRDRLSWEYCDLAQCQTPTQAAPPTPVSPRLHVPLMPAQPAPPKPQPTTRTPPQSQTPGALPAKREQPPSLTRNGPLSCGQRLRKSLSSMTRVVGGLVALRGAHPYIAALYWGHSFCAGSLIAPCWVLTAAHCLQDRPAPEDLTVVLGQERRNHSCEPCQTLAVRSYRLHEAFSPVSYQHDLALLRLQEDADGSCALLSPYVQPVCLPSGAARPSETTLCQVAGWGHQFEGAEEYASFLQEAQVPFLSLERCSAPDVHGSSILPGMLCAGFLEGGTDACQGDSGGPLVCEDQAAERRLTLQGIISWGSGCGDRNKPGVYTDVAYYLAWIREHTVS

[5] = biological target: FAD-linked sulfhydryl oxidase ALR (Homo sapiens, UniProt P55789); assay: inhibitors of human ALR sulfhydryl oxidase, dose response, biochemical, H2O2 detection, luminescence, cherry-pick (AID 493248)
[6] = biological target: T2, Cytochrome P450 3A4 (Homo sapiens, UniProt P08684)
[7] = biological target: T3, Short transient receptor potential channel 4 (Mus musculus, UniProt Q9QUQ5); assay: mouse TRPC4 channel inhibitors, dose response, cell-based, HEK293 TRPC4/mu-opioid, Fluo-4 calcium (AID 434942); type: functional;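 note: potency of inhibitors blocking the TRPC4 calcium response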
T3 sequence (Q9QUQ5 whole entry): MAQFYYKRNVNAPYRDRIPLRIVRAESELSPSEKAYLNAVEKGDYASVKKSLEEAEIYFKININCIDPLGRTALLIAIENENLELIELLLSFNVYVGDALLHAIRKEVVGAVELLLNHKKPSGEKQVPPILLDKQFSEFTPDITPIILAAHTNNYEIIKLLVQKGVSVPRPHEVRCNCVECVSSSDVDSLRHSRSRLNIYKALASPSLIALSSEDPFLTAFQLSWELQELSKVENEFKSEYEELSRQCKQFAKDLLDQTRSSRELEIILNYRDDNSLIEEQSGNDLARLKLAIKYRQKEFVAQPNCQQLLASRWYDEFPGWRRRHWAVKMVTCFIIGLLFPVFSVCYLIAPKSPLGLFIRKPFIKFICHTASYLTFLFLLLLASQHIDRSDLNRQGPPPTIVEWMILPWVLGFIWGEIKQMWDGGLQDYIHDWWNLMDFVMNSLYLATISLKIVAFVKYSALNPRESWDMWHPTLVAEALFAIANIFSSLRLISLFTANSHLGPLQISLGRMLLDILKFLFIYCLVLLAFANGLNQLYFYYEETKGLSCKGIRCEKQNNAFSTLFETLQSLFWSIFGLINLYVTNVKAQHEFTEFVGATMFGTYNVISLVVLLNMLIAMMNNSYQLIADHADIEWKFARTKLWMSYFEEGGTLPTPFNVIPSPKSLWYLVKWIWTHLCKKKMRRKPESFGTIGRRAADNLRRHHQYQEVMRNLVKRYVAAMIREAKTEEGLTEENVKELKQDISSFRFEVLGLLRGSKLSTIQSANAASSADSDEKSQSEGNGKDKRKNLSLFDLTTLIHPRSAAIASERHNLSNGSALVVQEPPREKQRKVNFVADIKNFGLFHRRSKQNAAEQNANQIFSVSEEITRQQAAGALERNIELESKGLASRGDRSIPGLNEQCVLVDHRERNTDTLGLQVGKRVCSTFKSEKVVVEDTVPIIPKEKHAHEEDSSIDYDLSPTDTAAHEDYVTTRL

[8] = biological target: T4, Calpain-2 catalytic subunit (Sus scrofa, UniProt P43367); assay: pig calpain II inhibitor potency, dose response, biochemical, fluorogenic peptide substrate (AID 1420); type: functional
T4 sequence (P43367 whole entry): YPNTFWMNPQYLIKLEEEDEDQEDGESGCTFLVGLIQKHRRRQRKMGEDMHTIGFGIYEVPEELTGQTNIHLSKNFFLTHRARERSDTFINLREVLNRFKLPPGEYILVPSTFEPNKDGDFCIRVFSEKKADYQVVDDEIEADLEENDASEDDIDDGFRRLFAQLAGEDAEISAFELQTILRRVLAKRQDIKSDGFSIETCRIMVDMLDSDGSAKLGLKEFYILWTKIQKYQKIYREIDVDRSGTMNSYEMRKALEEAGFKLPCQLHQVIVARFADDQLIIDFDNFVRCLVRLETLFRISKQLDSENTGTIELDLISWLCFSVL

[9] = Luminescence Cell-Based Dose Confirmation HTS to Identify Activators of 5'UTR Stem-Loop Driven Alpha-Synuclein mRNA Translation in H4 Neuroglioblastoma Cells. [Related pubchem assays: 1829 (Project Summary), 1814 (Primary HTS)]; type: functional
[10] = tested on: H4; assay: Luminescence Cell-Based Dose Response HTS to Identify Activators of 5'UTR Stem-Loop Driven Prion Protein mRNA Translation in H4 Neuroglioblastoma Cells. [Related pubchem assays: 1829 (Project Summary), 1814 (Primary HTS)]; type: functional; conditions: Homo sapiens
[11] = Luminescence Cell-Based Dose Response HTS to Identify Activators of Luciferase Translation or Activity in H4 […] Cells. [Related pubchem assays: 1829 (Project Summary), 1814 (Primary HTS)]; type: functional
[12] = cytotoxicity in KRAS-transformed pancreatic duct cells, primary screen, cell-based, fluorescence, HTS (AID 431); type: functional; conditions: Homo sapiens;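 note: cell line used: HPDE-C7K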
[13] = Luminescence Cell-Based Dose Retest to Confirm Inhibitors of Cancer Stem Cells. [Related pubchem assays (depositor defined):AID2717, AID2721]; type: functional; conditions: Homo sapiens
[14] = biological target: T5, Ubiquitin-conjugating enzyme E2 N (Homo sapiens, UniProt P61088); type: functional;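 note: Dose-response confirmation in a TR-FRET assay detecting UBC13-driven polyubiquitin chain formation, inhibition measured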
T5 sequence (P61088 whole entry): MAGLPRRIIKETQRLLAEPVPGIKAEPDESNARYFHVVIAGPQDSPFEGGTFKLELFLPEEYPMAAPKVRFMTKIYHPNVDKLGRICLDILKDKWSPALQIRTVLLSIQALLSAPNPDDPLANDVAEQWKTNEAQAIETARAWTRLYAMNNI

[15] = cytotoxicity in HPDE-C7 cells, cell-based, fluorescence, HTS (AID 430); type: functional; conditions: Homo sapiens
[16] = biological target: T2, Cytochrome P450 3A4; conditions: Potency
[17] = biological target: Cytochrome P450 2C9 (Homo sapiens, UniProt P11712); conditions: Potency
Sequence of Cytochrome P450 2C9 (P11712 whole entry): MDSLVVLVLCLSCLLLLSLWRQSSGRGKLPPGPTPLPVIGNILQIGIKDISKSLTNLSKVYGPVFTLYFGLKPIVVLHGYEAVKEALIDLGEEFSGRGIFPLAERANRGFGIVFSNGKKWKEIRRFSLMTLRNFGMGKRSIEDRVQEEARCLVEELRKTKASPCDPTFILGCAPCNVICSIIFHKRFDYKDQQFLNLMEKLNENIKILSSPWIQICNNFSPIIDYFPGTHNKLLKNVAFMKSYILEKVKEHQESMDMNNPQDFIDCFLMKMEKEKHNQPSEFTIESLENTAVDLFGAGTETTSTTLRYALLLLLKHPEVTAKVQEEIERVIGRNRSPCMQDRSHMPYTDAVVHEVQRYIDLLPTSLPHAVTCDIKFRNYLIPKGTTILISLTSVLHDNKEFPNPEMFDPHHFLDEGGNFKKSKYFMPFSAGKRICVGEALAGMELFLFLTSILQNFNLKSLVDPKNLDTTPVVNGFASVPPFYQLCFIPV

Sequence of Large T antigen (P03070 whole entry): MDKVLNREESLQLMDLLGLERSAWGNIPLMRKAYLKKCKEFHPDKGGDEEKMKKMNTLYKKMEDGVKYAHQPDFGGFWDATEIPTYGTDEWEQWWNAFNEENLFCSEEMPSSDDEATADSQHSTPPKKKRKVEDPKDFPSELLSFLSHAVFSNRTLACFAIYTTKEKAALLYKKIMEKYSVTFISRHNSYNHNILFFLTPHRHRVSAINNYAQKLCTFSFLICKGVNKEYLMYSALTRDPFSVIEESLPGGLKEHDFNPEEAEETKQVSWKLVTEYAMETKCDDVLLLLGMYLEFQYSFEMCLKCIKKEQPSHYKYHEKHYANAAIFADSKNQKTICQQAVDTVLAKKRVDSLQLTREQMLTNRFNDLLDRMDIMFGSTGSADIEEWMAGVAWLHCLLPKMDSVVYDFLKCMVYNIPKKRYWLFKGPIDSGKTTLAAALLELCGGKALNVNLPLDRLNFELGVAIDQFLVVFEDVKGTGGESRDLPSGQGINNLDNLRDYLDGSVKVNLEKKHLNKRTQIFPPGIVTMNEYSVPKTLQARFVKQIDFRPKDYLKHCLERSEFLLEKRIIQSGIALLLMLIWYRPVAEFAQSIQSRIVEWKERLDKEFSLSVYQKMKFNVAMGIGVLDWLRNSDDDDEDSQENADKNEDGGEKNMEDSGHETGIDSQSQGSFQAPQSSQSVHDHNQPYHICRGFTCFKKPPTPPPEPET
T2 sequence (P08684 whole entry): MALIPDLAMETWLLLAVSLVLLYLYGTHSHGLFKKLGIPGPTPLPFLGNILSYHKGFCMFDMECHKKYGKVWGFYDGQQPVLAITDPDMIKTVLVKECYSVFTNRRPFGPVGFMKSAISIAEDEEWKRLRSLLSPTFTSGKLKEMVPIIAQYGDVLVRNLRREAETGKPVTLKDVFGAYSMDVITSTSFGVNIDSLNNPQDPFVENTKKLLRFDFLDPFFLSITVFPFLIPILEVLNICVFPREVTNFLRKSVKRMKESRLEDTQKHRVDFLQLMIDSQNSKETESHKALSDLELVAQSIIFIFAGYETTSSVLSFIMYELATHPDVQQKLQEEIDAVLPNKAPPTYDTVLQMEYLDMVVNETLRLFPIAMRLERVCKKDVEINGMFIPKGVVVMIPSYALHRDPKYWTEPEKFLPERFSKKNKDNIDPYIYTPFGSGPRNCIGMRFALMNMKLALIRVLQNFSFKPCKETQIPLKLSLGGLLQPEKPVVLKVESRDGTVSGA
Sequence of FAD-linked sulfhydryl oxidase ALR (P55789 whole entry): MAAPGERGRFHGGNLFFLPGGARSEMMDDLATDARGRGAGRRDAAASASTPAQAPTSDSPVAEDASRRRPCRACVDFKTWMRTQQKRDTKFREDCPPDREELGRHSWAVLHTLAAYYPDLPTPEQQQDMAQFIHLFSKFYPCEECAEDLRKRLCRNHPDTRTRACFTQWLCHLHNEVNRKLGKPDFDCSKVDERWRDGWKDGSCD

COc1ccc(NC2CCCN(C(=O)c3cccc(C(F)(F)F)c3)C2)cc1OC (stereo not given)
IC50 [1]: 44.1 µM (active)

O=C1CCCC2=C1C(Cc1ccccc1)C1=C(CCCC1=O)O2
EC50 [2]: > 350 µM (not active)
EC50 [3]: > 350 µM (not active)

N=C(NOC(=O)c1ccc(Cl)c([N+](=O)[O-])c1)c1ccccn1
IC50 [4]: > 50 µM (inactive)

CC1CN(c2nc3ccccn3c(=O)c2/C=C(\C#N)C(=O)N2CCOCC2)CC(C)O1 (stereo not given)
EC50 [2]: > 350 µM (not active)
EC50 [3]: > 350 µM (not active)

N#Cc1ccsc1NC(=O)CN1CCN(c2ccc(O)cc2)CC1
IC50 [1]: 6.44 µM (active)

CCN(CC)c1ccc(N/C=C2/C(=O)NC(=O)N(c3ccccc3C)C2=O)cc1
IC50 [1]: > 100 µM (active)
AC50 [5]: 1.46 µM (active)

N#Cc1ccc(C(=O)Nc2ccc(N3CCN(C(=O)c4ccco4)CC3)cc2)c(F)c1
AC50 [6]: inconclusive

Cc1cc(C)nc(N=C(N)N(Cc2ccccc2)Cc2ccccc2)n1
EC50 [7]: 1.5 µM (active)
IC50 [8]: > 50 µM (not active)

COc1ccc(S(=O)(=O)N2CCCC2C(=O)Nn2cnnc2)cc1 (stereo not given)
IC50 [4]: > 50 µM (inactive)

C/C(N)=C(/C#N)C(=O)COC(=O)CC12CC3CC(CC(C3)C1)C2
EC50 [7]: 1.5 µM (active)
IC50 [8]: 12 µM (not active)

CCOC(=O)/C(C#N)=C/N=c1/ccc(C)cn1C
EC50 [9]: 53.5 µM (active)
EC50 [10]: > 120 µM (not active)
IC50 [4]: > 50 µM (inconclusive)
EC50 [11]: 23.8 µM (active)

Cc1nc2sccn2c(=O)c1CCN1CCC(=C(c2ccc(F)cc2)c2ccc(F)cc2)CC1 [RITANSERIN]
EC50 [12]: > 20 µM (not active)
AC50 [13]: 6.23 µM (active)
IC50 [14]: > 20 µM (inactive)
EC50 [15]: > 20 µM (not active)
AC50 [16]: 20 µM (inconclusive)
AC50 [17]: 25.1 µM (inconclusive)
